Test results as given in article PMC10891265 (2024).

Tested on: ATP aptamer (Apt-POSS) (DNA, aptamer) CCACCACGGTGGTGGTGGTTGTGGTGC
Assay: UV absorption at 260 nm after centrifugation, Langmuir fit
Settings: PBS, 30 min

Row | Compound | binding (control nucleotide, captured less than ATP, ATP series 1 μM to 2 mM) | K (0.1 mg particle/mL, aptamer on nanoparticles, apparent)
1 | Nc1ccn([C@@H]2O[C@H](COP(=O)(O)OP(=O)(O)OP(=O)(O)O)[C@@H](O)[C@H]2O)c(=O)n1 | weak | 
2 | Nc1ncnc2c1ncn2[C@@H]1O[C@H](COP(=O)(O)OP(=O)(O)OP(=O)(O)O)[C@@H](O)[C@H]1O |  | 46.5 ± 18.5 µM
